These results are taken from patent publication US12042485B2, “Methods of minimizing cancer metastasis” (MEDICINOVA, INC., priority 2021, dated 2024).

One data set addresses PDE 3A (Homo sapiens, UniProt Q14432). As to conditions: Gibson et al., Eur. J. Pharmacol. 2006; cited from earlier work.
The target in the next data set is PDE 10A1 (Homo sapiens, UniProt Q9Y233). As to conditions: Gibson et al., Eur. J. Pharmacol. 2006; cited from earlier work.
For a further data set, the system named is PDE 4. As to conditions: Gibson et al., Eur. J. Pharmacol. 2006; cited from earlier work.
Data set [1] has as its target T1, macrophage inhibitory factor (MIF) (Homo sapiens, UniProt P14174).
T1 sequence (P14174 2-115 limits assumed): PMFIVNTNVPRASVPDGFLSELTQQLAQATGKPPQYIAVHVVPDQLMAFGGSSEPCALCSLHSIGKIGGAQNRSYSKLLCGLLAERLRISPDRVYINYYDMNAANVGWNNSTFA
To be noted: Cho et al., PNAS-USA 2010; cited from earlier work.

The conditions of data set [2]: Sanftner et al Xenobiotica 2009; cited from earlier work.
In a further data set the target is PDE 11A1 (Homo sapiens, UniProt Q9HCR9). To be noted: Gibson et al., Eur. J. Pharmacol. 2006; cited from earlier work.
PDE 11A1, sequence (Q9HCR9 445-933): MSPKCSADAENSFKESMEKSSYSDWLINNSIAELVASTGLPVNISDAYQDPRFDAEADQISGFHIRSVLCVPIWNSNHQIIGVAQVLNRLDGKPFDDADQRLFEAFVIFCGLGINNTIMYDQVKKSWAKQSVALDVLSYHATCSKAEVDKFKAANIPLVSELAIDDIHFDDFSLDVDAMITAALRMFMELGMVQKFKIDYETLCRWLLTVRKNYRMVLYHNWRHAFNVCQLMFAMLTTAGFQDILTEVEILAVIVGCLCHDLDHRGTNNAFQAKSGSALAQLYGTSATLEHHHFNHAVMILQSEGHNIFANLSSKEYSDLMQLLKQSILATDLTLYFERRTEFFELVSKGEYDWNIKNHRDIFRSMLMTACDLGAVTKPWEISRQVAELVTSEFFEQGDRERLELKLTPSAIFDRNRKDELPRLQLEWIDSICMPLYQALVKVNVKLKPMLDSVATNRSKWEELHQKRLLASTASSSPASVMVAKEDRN
In another data set the test system is MIF. The data set is described as follows: plasma level of MIF after ibudilast. As to conditions: found by the inventors; no data given.
In data set [3] the target is toll-like receptor-4 (TLR4) (Homo sapiens, UniProt O00206). To be noted: Yang et al., Cell Death and Disease 2016; cited from earlier work.
toll-like receptor-4 (TLR4), sequence (O00206 24-839, species assumed): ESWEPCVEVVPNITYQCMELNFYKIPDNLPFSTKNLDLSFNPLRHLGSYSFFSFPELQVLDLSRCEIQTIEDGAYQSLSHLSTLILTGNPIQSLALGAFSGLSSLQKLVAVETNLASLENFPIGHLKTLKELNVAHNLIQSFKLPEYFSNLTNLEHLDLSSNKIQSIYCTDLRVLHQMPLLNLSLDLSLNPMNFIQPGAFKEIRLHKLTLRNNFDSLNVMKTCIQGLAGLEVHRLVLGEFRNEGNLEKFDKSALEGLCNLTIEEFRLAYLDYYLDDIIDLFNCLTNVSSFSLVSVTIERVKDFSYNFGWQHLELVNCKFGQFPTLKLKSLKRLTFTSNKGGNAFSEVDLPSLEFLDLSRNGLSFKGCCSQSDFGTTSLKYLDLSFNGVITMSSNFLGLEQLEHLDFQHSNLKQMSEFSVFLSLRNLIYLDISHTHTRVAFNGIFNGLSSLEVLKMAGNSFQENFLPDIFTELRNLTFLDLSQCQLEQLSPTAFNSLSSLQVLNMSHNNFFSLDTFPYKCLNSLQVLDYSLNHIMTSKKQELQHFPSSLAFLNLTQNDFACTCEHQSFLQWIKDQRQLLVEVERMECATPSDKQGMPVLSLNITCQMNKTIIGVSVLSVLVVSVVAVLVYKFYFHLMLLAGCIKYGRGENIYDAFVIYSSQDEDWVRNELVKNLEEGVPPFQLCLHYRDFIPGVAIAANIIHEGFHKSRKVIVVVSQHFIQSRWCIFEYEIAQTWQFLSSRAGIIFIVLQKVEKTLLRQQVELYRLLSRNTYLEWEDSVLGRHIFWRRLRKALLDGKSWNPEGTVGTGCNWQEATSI
toll-like receptor-4 (TLR4), sequence (Q9Y6Y9 17-160 partner limits assumed, species assumed): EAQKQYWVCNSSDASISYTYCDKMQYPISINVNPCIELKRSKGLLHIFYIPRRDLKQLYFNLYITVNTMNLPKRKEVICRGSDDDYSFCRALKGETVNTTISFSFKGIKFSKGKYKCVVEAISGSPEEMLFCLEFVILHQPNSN

PDE 3A, sequence (Q14432 whole entry): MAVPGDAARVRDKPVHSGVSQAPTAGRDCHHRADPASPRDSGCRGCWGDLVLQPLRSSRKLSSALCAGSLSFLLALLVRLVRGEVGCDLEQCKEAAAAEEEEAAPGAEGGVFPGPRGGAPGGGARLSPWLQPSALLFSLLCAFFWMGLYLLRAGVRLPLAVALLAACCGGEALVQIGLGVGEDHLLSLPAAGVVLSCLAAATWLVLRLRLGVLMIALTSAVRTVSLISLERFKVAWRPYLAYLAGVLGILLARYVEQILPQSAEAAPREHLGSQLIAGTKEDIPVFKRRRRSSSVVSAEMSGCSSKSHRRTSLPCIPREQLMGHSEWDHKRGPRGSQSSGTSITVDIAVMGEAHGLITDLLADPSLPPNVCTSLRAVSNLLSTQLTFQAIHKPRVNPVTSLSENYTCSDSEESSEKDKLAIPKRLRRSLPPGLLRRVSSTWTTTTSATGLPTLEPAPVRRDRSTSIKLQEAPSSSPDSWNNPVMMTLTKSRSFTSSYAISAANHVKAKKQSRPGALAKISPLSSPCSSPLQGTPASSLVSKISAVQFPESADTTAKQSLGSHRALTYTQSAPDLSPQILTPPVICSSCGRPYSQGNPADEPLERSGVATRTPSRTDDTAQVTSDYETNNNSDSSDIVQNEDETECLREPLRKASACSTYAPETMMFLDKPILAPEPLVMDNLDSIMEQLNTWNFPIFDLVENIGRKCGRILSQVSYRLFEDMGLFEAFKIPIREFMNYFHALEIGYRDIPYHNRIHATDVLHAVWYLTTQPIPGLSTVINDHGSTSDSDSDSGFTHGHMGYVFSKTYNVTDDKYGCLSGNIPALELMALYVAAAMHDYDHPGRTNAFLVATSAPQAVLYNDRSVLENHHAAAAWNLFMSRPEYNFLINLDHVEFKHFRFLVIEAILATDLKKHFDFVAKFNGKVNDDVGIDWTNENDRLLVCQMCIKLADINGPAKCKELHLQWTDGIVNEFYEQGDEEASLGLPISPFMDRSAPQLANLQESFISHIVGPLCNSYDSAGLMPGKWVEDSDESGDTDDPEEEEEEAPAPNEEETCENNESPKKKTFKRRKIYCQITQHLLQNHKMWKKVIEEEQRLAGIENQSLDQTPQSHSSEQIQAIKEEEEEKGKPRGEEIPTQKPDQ
PDE 10A1, sequence (Q9Y233 1-779 isoform Q9Y233-1): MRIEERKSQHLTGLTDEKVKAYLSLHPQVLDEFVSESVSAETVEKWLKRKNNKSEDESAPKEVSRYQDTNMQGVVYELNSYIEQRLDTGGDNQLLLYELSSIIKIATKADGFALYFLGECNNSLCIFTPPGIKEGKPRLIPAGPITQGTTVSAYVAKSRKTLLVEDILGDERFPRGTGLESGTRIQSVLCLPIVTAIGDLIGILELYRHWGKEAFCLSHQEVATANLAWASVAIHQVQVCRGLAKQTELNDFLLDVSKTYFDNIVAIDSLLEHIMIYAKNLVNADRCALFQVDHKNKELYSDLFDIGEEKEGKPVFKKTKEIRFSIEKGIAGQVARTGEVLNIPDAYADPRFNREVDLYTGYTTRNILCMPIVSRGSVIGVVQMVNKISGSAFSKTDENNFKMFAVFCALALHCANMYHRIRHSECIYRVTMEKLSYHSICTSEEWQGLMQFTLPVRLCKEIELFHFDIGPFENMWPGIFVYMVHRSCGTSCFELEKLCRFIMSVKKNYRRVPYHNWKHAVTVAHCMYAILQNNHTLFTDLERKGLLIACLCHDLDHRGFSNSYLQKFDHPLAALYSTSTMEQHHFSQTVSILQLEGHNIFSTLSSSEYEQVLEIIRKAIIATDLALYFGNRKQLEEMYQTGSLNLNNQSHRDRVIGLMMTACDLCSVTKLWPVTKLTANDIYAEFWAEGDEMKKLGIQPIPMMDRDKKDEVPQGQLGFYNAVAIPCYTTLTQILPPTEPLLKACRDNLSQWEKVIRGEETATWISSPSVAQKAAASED

`CC(C)C(=O)c1c(C(C)C)nn2ccccc12` [ibudilast, 2-methyl-1-(2-(1-methylethyl)pyrazolo(1,5-a)pyridin-3-yl)1-propanone]: the “inhibition of PDE 3A” value on PDE 3A is “selective inhibitor”. Also, the “inhibition of PDE 10A1” value on PDE 10A1 is recorded as “selective inhibitor”. Moreover, the “inhibition of PDE 4” value in the data set on PDE 4 is reported as “selective inhibitor”. Also, in data set [1], the “inhibition of HPP tautomerase activity of MIF” value is “allosteric inhibitor”. In data set [2], the CNS penetration entry was “good CNS penetration”. Moreover, the “inhibition of PDE 11A1” value on PDE 11A1 is listed as “selective inhibitor”. The “plasma level of MIF” value in the data set on MIF is “lowers”. Further, in data set [3], the TLR4 antagonistic activity result is reported as “antagonistic activity”.
